Results reported in patent US20110251212A1, “PIPERAZINE DERIVATIVES” (SHIONOGI & CO., LTD., priority 2007, published 2011).

Key:
[1] = target: T1, mouse NMDA receptor (NR1 subunit and NR2B subunit co-expressed in HEK293 cells) (Mus musculus, UniProt P35438+Q01097); test: Expression of NMDA receptor and measurement of Ca ion flow in amount (HEK293 cells, Fluo-3/AM, FDSS3000); type: cell-based; conditions: Ca ion flow in induced with glutamic acid 20 μM/glycine 2 μM, read-out: Ca2+ 1050
T1 construct: expressed in transfected cells; host or cells: HEK293 cells, transient, pcDNA 3.1 plasmids
T1 sequence (Q01097 27-1482, other chains not shown): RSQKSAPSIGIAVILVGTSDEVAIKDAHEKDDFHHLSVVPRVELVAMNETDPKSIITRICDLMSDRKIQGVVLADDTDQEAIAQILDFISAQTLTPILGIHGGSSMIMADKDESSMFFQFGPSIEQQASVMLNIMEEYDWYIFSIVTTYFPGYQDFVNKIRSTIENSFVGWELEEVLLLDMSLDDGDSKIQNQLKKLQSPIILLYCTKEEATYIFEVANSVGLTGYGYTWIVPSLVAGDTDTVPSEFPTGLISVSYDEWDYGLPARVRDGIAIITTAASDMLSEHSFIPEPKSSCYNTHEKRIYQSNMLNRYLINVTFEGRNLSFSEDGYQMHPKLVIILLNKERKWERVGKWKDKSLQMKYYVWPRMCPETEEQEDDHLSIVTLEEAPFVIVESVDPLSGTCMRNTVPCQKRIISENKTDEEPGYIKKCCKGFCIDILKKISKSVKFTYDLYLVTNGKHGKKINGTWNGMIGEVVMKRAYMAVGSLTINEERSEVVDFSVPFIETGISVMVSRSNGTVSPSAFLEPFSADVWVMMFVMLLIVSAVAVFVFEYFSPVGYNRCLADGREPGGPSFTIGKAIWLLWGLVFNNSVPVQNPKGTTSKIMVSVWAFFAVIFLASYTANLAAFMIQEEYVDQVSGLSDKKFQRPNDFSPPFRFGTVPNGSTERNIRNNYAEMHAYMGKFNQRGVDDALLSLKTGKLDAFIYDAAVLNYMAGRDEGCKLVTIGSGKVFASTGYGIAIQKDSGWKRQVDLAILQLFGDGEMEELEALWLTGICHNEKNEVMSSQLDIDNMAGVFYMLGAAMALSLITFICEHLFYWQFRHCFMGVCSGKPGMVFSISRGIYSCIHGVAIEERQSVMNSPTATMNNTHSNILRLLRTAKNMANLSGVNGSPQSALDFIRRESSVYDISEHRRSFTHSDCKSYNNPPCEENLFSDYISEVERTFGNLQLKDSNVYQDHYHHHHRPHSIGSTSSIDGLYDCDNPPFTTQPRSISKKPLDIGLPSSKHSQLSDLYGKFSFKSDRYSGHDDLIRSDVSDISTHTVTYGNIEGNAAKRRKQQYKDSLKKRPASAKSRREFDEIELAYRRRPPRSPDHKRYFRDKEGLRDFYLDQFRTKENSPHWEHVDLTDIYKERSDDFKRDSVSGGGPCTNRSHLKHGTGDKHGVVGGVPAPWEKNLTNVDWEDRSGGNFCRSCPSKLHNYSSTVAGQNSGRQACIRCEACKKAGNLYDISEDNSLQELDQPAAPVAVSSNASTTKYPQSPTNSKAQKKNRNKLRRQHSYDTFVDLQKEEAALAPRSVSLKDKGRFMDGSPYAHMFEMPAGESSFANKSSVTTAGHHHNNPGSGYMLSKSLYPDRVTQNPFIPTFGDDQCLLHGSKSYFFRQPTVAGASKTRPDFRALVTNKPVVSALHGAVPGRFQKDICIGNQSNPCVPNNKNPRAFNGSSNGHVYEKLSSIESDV
Method: Test Example 2 Expression of NMDA receptor and measurement of Ca ion flow in amount
A complementary DNA (cDNA) of a mouse NMDA receptor subunit was transiently introduced into HEK293 cells and, after one day from introduction, change in a glutamic acid/glycine-induced intracellular Ca amount was measured using a Ca ion reactive fluorescent dye.
HEK293 cells were cultured and passaged using a modified Dulbecco's Eagle medium (DMEM, low glucose).
20,000/well of HEK293 cells were seeded on a 96-well plate, a NR1 subunit and a NR2B subunit of a NMDA receptor incorporated into pcDNA 3.1 plasmid were transiently introduced into cells, and co-expression of subunits was performed. An introduction amount of a DNA was such that the NR1 subunit was 0.025 μg, and the NR2B subunit was 0.075 μg per well. For cells after introduction, cell death was inhibited using 50 μM of a NMDA receptor antagonist MK-801.
For adjusting a test compound and washing cells, Krebs Ringer Hepes buffer (KRH, Ca: 5 mM) was used.
One day after introduction, the NMDA receptor antagonist MK-801 was washed off using the KRH buffer, and a Ca ion indicative fluorescent dye Fluo-3/AM was made to be taken into cells. Flow in of a Ca ion was induced with glutamic acid 20 μM/glycine 2 μM. Change in a fluorescence amount due to intracellular Ca ion flow in was measured at excitation 480 nm using a fluorescence imaging system FDSS3000.
From a measured value of the test compound, a Ca ion flow in inhibitory rate (%) was obtained by the following equation, and a dose at which flow in is 50% inhibited (IC50) was calculated.
Ca ion flow in inhibitory rate(%)=100−[(fluorescence amount in presence of test compound−background fluorescence amount)/(total fluorescence amount[…]background fluorescence amount)]×100

[2] = target: T2, NMDA Receptor (NR1/NR2B Receptor) (Rattus norvegicus, UniProt P35439+Q00960); test: Experiment of binding to NMDA receptor (NR1/NR2B receptor), [3H]-Ifenprodil competition, rat cerebral cortex membrane; conditions: [3H]-Ifenprodil 5 nM, GBR-12909 3 μM, ice temperature 120 minutes
T2 construct: this was used as a membrane specimen in an experiment; from tissue; host or cells: rat cerebral cortex membranes
T2 sequence (Q00960 27-1482, other chains not shown): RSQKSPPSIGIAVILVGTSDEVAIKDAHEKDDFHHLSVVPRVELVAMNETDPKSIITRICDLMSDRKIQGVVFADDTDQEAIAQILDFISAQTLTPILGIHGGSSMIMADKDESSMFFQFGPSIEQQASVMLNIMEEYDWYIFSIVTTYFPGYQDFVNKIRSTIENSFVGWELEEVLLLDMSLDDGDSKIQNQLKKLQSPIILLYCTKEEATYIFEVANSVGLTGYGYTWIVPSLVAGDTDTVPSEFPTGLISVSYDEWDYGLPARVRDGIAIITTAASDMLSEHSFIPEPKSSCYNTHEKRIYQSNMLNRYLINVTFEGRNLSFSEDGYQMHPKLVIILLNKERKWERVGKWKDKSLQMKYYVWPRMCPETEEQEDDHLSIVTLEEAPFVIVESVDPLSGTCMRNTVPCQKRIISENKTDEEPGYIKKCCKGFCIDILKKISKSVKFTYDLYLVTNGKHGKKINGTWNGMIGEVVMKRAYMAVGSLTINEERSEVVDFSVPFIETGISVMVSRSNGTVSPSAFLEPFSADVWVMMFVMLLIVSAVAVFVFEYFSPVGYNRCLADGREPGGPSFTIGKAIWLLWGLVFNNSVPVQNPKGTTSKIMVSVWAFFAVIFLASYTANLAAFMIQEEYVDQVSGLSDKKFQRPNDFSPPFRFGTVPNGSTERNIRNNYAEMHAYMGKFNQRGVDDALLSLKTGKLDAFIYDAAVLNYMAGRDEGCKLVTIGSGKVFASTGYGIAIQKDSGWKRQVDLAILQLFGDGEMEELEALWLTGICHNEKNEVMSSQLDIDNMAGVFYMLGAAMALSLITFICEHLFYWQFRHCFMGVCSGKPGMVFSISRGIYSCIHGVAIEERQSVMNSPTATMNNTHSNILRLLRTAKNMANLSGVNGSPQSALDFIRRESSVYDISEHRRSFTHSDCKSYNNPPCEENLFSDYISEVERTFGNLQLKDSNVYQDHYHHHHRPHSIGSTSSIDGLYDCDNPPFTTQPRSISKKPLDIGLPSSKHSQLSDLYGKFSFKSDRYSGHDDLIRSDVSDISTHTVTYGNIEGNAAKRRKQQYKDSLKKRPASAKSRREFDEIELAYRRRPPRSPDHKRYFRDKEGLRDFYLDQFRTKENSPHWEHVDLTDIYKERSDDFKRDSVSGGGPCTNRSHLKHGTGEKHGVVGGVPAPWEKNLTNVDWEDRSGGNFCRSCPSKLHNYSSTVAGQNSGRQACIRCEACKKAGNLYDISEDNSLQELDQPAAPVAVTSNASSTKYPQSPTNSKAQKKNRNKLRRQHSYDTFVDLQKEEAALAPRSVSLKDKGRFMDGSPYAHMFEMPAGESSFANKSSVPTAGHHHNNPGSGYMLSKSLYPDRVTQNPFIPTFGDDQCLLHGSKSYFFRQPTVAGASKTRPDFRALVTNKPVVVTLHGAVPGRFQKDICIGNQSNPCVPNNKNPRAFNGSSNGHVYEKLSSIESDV
Method: Using Ifenprodil which is a NR1/NR2B subtype receptor-specific antagonist as a ligand, an experiment of receptor competition with a test compound was performed.
A male Slc:Wistar rat was used as an animal, a decapitated brain was isolated, and cerebral cortex was fractionated. The cerebral cortex was homogenized with a 20-fold amount of an ice-cooled 50 mM Tris/HCl buffer (pH 7.4), and centrifuged at 4° C. and 27,500×g for 10 minutes. The resulting precipitate was suspended in the same buffer, and the suspension was centrifuged again. This procedure was repeated three times, and the resulting precipitate was suspended in a buffer, and stored at −80° C. Immediately before an experiment, the frozen suspension was thawed at room temperature, and centrifuged at 4° C. and 27,500×g for 10 minutes, and the resulting precipitate was suspended in a buffer. The suspension was further diluted 10-fold with a buffer, and this was used as a membrane specimen in an experiment.
In a binding experiment, to 470 μl of the membrane specimen were added 10 μl of different concentrations of a test compound, 10 μl of a labeled ligand [3H]-Ifenprodil and 10 μl of GBR-12909, and this was incubated at an ice temperature for 120 minutes. A concentration of [3H]-Ifenprodil of the labeled ligand was finally 5 nM, and a concentration of GBR-12909 was finally 3 μM. For measuring a total binding amount, DMSO as a solvent was used and, for measuring a non-specific binding amount, 100 μM of Ifenprodil was used. In addition, GBR-12909 was added in order to block binding of [3H]-Ifenprodil to a non-polyamine-sensitive site. After incubation, a bound body and a free body were separated using a Whatman GF/C filter (manufactured by Whatman), and the filter was washed with 2.5 ml of an ice-cooled buffer four times. The filter was immersed in a liquid scintillation (Clear-sol I, manufactured by Nacalai tesque) in a vial bottle, and radioactivity (dpm) was measured with a liquid scintillation counter. From a measured value, a binding inhibition rate (%) was obtained by the following equation, and a dose at which binding is inhibited 50% (IC50) was calculated. A formula of GBR-12909 (Vanoxerine) is shown below.
Binding inhibition rate(%)=100−[(binding amount in presence of test compound−non-specific amount)/(total binding amount−non-specific binding amount)]×100

Row | Compound | melting point | IC50 [1] | IC50 [2]
1 | O=C(CCNc1ccc2[nH]c(=O)oc2c1)N1CCN(c2ccc(Cl)c(F)c2)CC1 [Compound I-2] | 187 to 189 °C |  | 
2 | O=C(Nc1ccc2[nH]c(=O)oc2c1)C(=O)N1CCN(c2cc(F)cc(F)c2)CC1 [Compound I-12] |  | 108 nM | 
3 | C[C@@H]1CN(c2cc(F)cc(F)c2)CCN1C(=O)C(=O)Nc1ccc2[nH]c(=O)oc2c1 [Compound I-14] |  | 48 nM | 
4 | C[C@@H]1CN(c2ccc(Cl)cc2)CCN1C(=O)CNc1ccc2[nH]c(=O)oc2c1 [Compound I-15] |  | 5 nM | 0.039 µM
5 | C[C@@H]1CN(C(=O)CNc2ccc3[nH]c(=O)oc3c2)CCN1c1ccc(Cl)c(F)c1 [Compound I-17] |  | 3 nM | 0.024 µM
6 | COCc1ccc(N2CCN(C(=O)C(=O)Nc3ccc4[nH]c(=O)oc4c3)C[C@H]2C)cc1 [Compound I-20] |  | 41 nM | 
7 | O=C(Nc1ccc2[nH]c(=O)oc2c1)C(=O)N1CCN(c2ccc(OCC(F)(F)F)cc2)CC1 [Compound I-21] |  | 47 nM | 
8 | Cc1ccc(N2CCN(C(=O)C(=O)Nc3ccc4[nH]c(=O)oc4c3)[C@H](C)C2)cc1 [Compound I-22] |  | 22 nM | 0.085 µM
9 | C[C@@H]1CN(C(=O)C(=O)Nc2ccc3[nH]c(=O)oc3c2)CCN1c1ccc(OCC(F)(F)F)cc1 [Compound I-23] |  | 22 nM | 
10 | C[C@@H]1CN(c2ccc(OCC(F)(F)F)cc2)CCN1C(=O)C(=O)Nc1ccc2[nH]c(=O)oc2c1 [Compound I-24] |  | 19 nM | 0.105 µM
11 | C[C@@H]1CN(C(=O)C(=O)Nc2cnc3[nH]c(=O)oc3c2)CCN1c1ccc(OC(F)(F)F)cc1 [Compound I-25] |  | 9 nM | 
12 | Cc1ccc(N2CCN(C(=O)C(=O)Nc3ccc4[nH]c(=O)oc4c3)CC2)cc1F [Compound I-26] |  | 7 nM | 0.014 µM
13 | Cc1ccc(N2CCN(C(=O)C(=O)Nc3ccc4[nH]c(=O)oc4c3)C[C@H]2C)cc1F [Compound I-28] |  | 3 nM | 0.068 µM
14 | CO/N=C/c1ccc(N2CCN(C(=O)C(=O)Nc3ccc4[nH]c(=O)oc4c3)[C@H](C)C2)cc1 [Compound I-31] |  | 106 nM | 
15 | COCc1ccc(N2CCN(C(=O)C(=O)Nc3ccc4[nH]c(=O)oc4c3)[C@H](C)C2)cc1 [Compound I-32] |  | 105 nM | 
16 | COCc1ccc(N2CCN(C(=O)C(=O)Nc3ccc4[nH]c(=O)oc4c3)CC2)cc1F [Compound I-33] |  | 26 nM | 0.059 µM
17 | Cc1ccc(N2CCN(C(=O)C(=O)Nc3ccc4[nH]c(=O)oc4c3)CC2)cc1Cl [Compound I-35] |  | 9 nM | 0.02 µM
18 | C[C@@H]1CN(c2ccc(OC(F)(F)F)cc2)CCN1C(=O)CNc1ccc2[nH]c(=O)oc2c1 [Compound I-36] |  |  | 0.071 µM
19 | Cc1cc(N2CCN(C(=O)C(=O)Nc3ccc4[nH]c(=O)oc4c3)CC2)ccc1Cl [Compound I-37] |  | 9 nM | 0.029 µM
20 | COc1c(F)cc(N2CCN(C(=O)CNc3ccc4[nH]c(=O)oc4c3)C[C@H]2C)cc1F [Compound I-43] |  | 21 nM | 0.065 µM
21 | Cc1cc(N2CCN(C(=O)C(=O)Nc3ccc4[nH]c(=O)oc4c3)[C@H](C)C2)ccc1F [Compound I-45] |  | 57 nM | 
22 | Cc1cc(N2CCN(C(=O)C(=O)Nc3ccc4[nH]c(=O)oc4c3)CC2)ccc1F [Compound I-46] |  | 83 nM | 
23 | Cc1cc(N2CCN(C(=O)C(=O)Nc3ccc4[nH]c(=O)oc4c3)C[C@H]2C)ccc1F [Compound I-49] |  | 19 nM | 
24 | CC[C@@H]1CN(C(=O)C(=O)Nc2ccc3[nH]c(=O)oc3c2)CCN1c1ccc(Cl)cc1 [Compound I-51] |  | 5 nM | 0.09 µM
25 | CC[C@@H]1CN(c2ccc(Cl)cc2)CCN1C(=O)C(=O)Nc1ccc2[nH]c(=O)oc2c1 [Compound I-52] |  | 8 nM | 0.081 µM
26 | C[C@@H]1CN(c2ccc(Cl)cc2)CCN1CC(=O)Nc1ccc2[nH]c(=O)oc2c1 [Compound I-53] |  | 33 nM | 0.134 µM
27 | Cc1cc(N2CCN(CC(=O)Nc3ccc4[nH]c(=O)oc4c3)C[C@H]2C)ccc1Cl [Compound I-60] |  | 10 nM | 0.08 µM

Further lines, results first:

Row | melting point | IC50 [1] | IC50 [2] | Compound
28 | 130 to 132 °C |  |  | O=C(CNc1ccc2[nH]c(=O)oc2c1)N1CCN(c2ccc(F)c(Cl)c2)CC1 [Compound I-3]
29 |  | 7 nM | 0.031 µM | COc1c(F)cc(N2CCN(C(=O)CNc3ccc4[nH]c(=O)oc4c3)[C@H](C)C2)cc1F [Compound I-9]
30 |  | 14 nM | 0.114 µM | C[C@@H]1CN(C(=O)C(=O)Nc2ccc3[nH]c(=O)oc3c2)CCN1c1cc(F)cc(F)c1 [Compound I-13]
31 |  | 12 nM | 0.072 µM | C[C@@H]1CN(C(=O)CNc2ccc3[nH]c(=O)oc3c2)CCN1c1ccc(Cl)cc1 [Compound I-16]
32 |  | 48 nM | 0.107 µM | Cc1ccc(N2CCN(C(=O)C(=O)Nc3ccc4[nH]c(=O)oc4c3)CC2)cc1 [Compound I-18]
33 |  | 2 nM | 0.035 µM | Cc1ccc(N2CCN(C(=O)C(=O)Nc3ccc4[nH]c(=O)oc4c3)[C@H](C)C2)cc1F [Compound I-27]
34 |  | 9 nM | 0.129 µM | Cc1ccc(N2CCN(C(=O)C(=O)Nc3ccc4[nH]c(=O)oc4c3)C[C@H]2C)cc1 [Compound I-29]
35 |  | 31 nM |  | C[C@@H]1CN(C(=O)CNc2ccc3[nH]c(=O)oc3c2)CCN1c1ccc(OC(F)(F)F)cc1 [Compound I-30]
36 |  | 32 nM | 0.099 µM | COCc1ccc(N2CCN(C(=O)C(=O)Nc3ccc4[nH]c(=O)oc4c3)[C@H](C)C2)cc1F [Compound I-34]
37 |  | 7 nM | 0.041 µM | Cc1ccc(N2CCN(C(=O)C(=O)Nc3ccc4[nH]c(=O)oc4c3)[C@H](C)C2)cc1Cl [Compound I-38]
38 |  | 9 nM | 0.08 µM | Cc1ccc(N2CCN(C(=O)C(=O)Nc3ccc4[nH]c(=O)oc4c3)C[C@H]2C)cc1Cl [Compound I-39]
39 |  | 5 nM | 0.067 µM | Cc1cc(N2CCN(C(=O)C(=O)Nc3ccc4[nH]c(=O)oc4c3)C[C@H]2C)ccc1Cl [Compound I-41]
40 |  | 5 nM | 0.064 µM | C[C@@H]1CN(C(=O)C(=O)Nc2ccc3[nH]c(=O)oc3c2)CCN1c1ccc(C(F)(F)F)cc1 [Compound I-50]
41 |  | 52 nM |  | C[C@@H]1CN(c2ccc(F)c(Cl)c2)CCN1CC(=O)Nc1ccc2[nH]c(=O)oc2c1 [Compound I-54]
42 |  | 4 nM | 0.033 µM | C[C@@H]1CN(CC(=O)Nc2ccc3[nH]c(=O)oc3c2)CCN1c1ccc(Cl)c(F)c1 [Compound I-55]
43 |  | 12 nM | 0.044 µM | COc1c(F)cc(N2CCN(CC(=O)Nc3ccc4[nH]c(=O)oc4c3)CC2)cc1F [Compound I-56]
44 |  | 4 nM | 0.056 µM | COc1c(F)cc(N2CCN(CC(=O)Nc3ccc4[nH]c(=O)oc4c3)C[C@H]2C)cc1F [Compound I-57]
45 |  | 6 nM | 0.042 µM | C[C@@H]1CN(CC(=O)Nc2ccc3[nH]c(=O)oc3c2)CCN1c1ccc(Cl)cc1 [Compound I-59]
46 |  | 10 nM | 0.026 µM | O=C(NCCN1CCN(c2ccc(Cl)cc2)CC1)c1ccc2[nH]c(=O)oc2c1 [Compound I-65]
